First: O=C1c2ccc(Nc3ccc(Cl)cc3)cc2C(=O)N1Cc1cccnc1
Second: O=C(c1ccccc1)c1cc(Cl)ccc1C#CCN1C(=O)c2ccccc2C1=O
The melting point of the first is higher: 207 to 210 °C for the first, 130 to 133 °C for the second.

Compared with `CCOC(=O)N1CCC(O)(c2cc(F)c(Br)cc2F)CC1`, `CCOC(=O)c1cnc2ccc(F)cc2c1O` is higher in melting point: 133 to 136 °C for the first, greater than 260 °C for the second.

Compared with `N#Cc1c(N2CCCCC2)cc(-c2ccc3ccccc3c2)c2c1C(=O)c1ccccc1-2`, `COc1ccc(C2=C(c3ccccc3)CCCc3cc(O)ccc32)cc1` is higher in melting point: 182 to 184 °C for the first, 232 to 233 °C for the second.

First: Clc1cc(CCCn2ccnc2)ccc1OCc1coc(-c2cccs2)n1
Second: COc1cccc(CCNc2nc(N)n3nc(-c4ccco4)nc3n2)c1
The melting point of the first is lower: 93 to 94 °C for the first, 172 to 174 °C for the second.

First: CCOC(=O)C1=Cc2c(OC)ccc(OC)c2CC1
Second: CCOC(=O)c1cc2c3n(ccc-2n1)CC(C(C)C)=N3
The melting point of the first is lower: 74 to 76 °C for the first, 207 to 209 °C for the second.

First: O=C(O)c1ccc(Cl)cc1C(F)(F)F
Second: Cc1cc(CC(=O)O)n(C)c1C(=O)c1ccc(Cl)cc1Cl
The melting point of the first is lower: 106 to 108 °C for the first, 140 to 143 °C for the second.

Compared with `CCOC(=O)C(C)c1cc(C(C)(C)C)c(O)c(C(C)(C)C)c1` (stereo not given), `CNc1nnc(-c2cc(C(C)(C)C)c(O)c(C(C)(C)C)c2)s1` is higher in melting point: 54 to 56 °C for the first, 208 °C for the second.

Compared with `OCc1ccc(OCCCCCCCCCCC2c3c(c4ccccc4c4ccccc34)-c3c2c2ccccc2c2ccccc32)cc1`, `COC(=O)c1cc(OCCOc2cccc3ccccc23)cc(OCCOc2cccc3ccccc23)c1` is higher in melting point: 64 to 66 °C for the first, 132 to 137 °C for the second.

First: COC(=O)C1=C(C)NC(C)=C(C(=O)OCCCCCCOc2cc(-c3ccccc3)[nH]n2)C1c1cccc([N+](=O)[O-])c1 (stereo not given)
Second: CCOC(=O)c1ccc(-c2ccc(-c3cccc(OCOC)c3)c(-c3ccc4c(c3)C(C)(C)CCC4(C)C)c2)cc1
The melting point of the first is higher: 151 to 153 °C for the first, 103 to 104 °C for the second.

First: COc1cc(I)c(C(=O)N(c2ccnc3cc4c(cc23)OCO4)C(C)CN(C)C)cc1OC (stereo not given)
Second: COc1cc2c(cc1OCc1ccccc1)CCN(C(=O)c1cc(OC)c(OC)c(OC)c1)C2
The melting point of the first is higher: 82 to 84 °C for the first, 63 to 64 °C for the second.

First: C#CCOc1ccc2c(c1)Sc1cc([N+](=O)[O-])ccc1N2
Second: CON(c1ccc([N+](=O)[O-])cc1Cl)S(=O)(=O)c1ccc(Cl)c(Cl)c1
The melting point of the first is higher: 226 to 227 °C for the first, 132 to 133 °C for the second.

First: O=[N+]([O-])c1cccc(OCc2ccccc2)c1Cl
Second: O=[N+]([O-])c1cccnc1NCC(O)c1ccccc1 (stereo not given)
The melting point of the first is lower: 94 °C for the first, 101 to 103 °C for the second.

Compared with `COc1ccc2c(cc(C)n2-c2ncnc3cc(Cl)ccc23)c1CC(=O)O`, `COC(=O)c1cc(C#N)c2cc(Cc3ccc(F)cc3)cnc2c1O` is higher in melting point: 110 to 112 °C for the first, 178 to 179 °C for the second.

First: CCCc1c(OCCCOc2ccccc2)ccc2c1OC(CCC(=O)O)(CCC(=O)O)CC2
Second: COC(=O)C1(CCCN2CCN(c3ccccc3)CC2)Oc2ccccc2CCC1O (stereo not given)
The melting point of the first is higher: 130 to 132 °C for the first, 98 to 99 °C for the second.

First: O=C1Cc2cc(Cl)cc(Oc3ccccc3Cl)c2N1
Second: CC1(C)OC(=O)Nc2ccc(-c3cc(Cl)cc(Cl)c3)cc21
The melting point of the first is lower: 196 to 198 °C for the first, 245 to 246 °C for the second.

First: CCCCn1cc([N+](=O)[O-])c(=O)c2cnc(-c3ccncc3)nc21
Second: O=C(O)c1ccc(-c2csc(-c3ccncc3)n2)cc1
The melting point of the first is lower: 240 to 241 °C for the first, greater than 300 °C for the second.

Compared with `O=c1oc(-c2cccc(F)c2)nc2cccc(Cl)c12`, `CN1N=C(c2ccc(F)cc2)c2ccc(Cl)cc2CS1(=O)=O` is higher in melting point: 120 to 123 °C for the first, 250 to 251 °C for the second.

Compared with `COC(=O)c1cccc(CNC(C)=O)c1C(=O)OC`, `COC(=O)c1cccc2c(CCl)c(C)sc12` is lower in melting point: 177 to 179 °C for the first, 125 to 126 °C for the second.

First: O=C1C=C(c2ccc(C(F)(F)F)cc2C(F)(F)F)CO1
Second: C[C@@H]1N(c2ccc(C#N)c(C(F)(F)F)c2)C(=O)C[C@@]1(O)C1CC1
The melting point of the first is higher: 116 to 117 °C for the first, 84 to 90 °C for the second.

First: BrCCc1ccc2c(c1)CCC2
Second: O=C(Cc1ccc(F)cc1)c1cccs1
The melting point of the first is lower: 57.8 to 58.1 °C for the first, 61 to 62.5 °C for the second.

First: CC1CCN(C(=O)c2ccc([C@H]3CC[C@H](NC[C@H](O)COc4ccc(O)c(NS(C)(=O)=O)c4)CC3)cc2)CC1
Second: COc1cccc(N(CCN2CCC(C(=O)c3ccc(F)cc3)CC2)C(=O)c2ccc([N+](=O)[O-])cc2)c1
The melting point of the first is lower: 90 to 100 °C for the first, 133 to 135 °C for the second.

Compared with `COCCn1c2cc(OCCCO)c(OC)cc2c2c3c(c(-c4ccccc4Cl)cc21)C(=O)NC3=O`, `CCOc1cc2cc(CO)c(CO)c(-c3ccnc(-n4nc(-c5cccnc5)c5ccccc5c4=O)c3)c2cc1OCC` is lower in melting point: 251 to 257 °C for the first, 222 °C for the second.

First: Cc1cc2cc(C(=O)OCc3ccccc3)n(CC(=O)OC(C)(C)C)c2cc1C
Second: Cc1cccc(NC(=O)NCC(=O)N2[C@@H](C(=O)OC(C)(C)C)C[C@@H](C(=O)N(C)C)[C@H]2c2ccccc2)c1 (racemic)
The melting point of the first is lower: 133 to 134 °C for the first, 199 °C for the second.

Compared with `O=C1N(Cc2ccccn2)c2c(F)cccc2C12COc1cc3c(cc12)OCCO3` (stereo not given), `O=C1N(N2CCOCC2)c2ccccc2C1(Cc1ccncc1)c1ccccc1` (stereo not given) is lower in melting point: 205 to 207 °C for the first, 190 to 192 °C for the second.

First: CCOC(=O)C1=C(C)Nc2nc(N3CCOCC3)nc(N3CCOCC3)c2C1c1ccccc1[N+](=O)[O-] (stereo not given)
Second: CN1C(=O)NC(=O)C1=Cc1cc(OCCCC(=O)N(C)C2CCCCC2)ccc1[N+](=O)[O-]
The melting point of the first is higher: 201 °C for the first, 149 to 154 °C for the second.

Compared with `NCCn1cnc(-c2ccccc2)c1-c1ccccc1`, `NC(=O)Cc1nc(-c2ccc(Cl)cc2)sc1-c1ccccc1` is higher in melting point: 96 to 98 °C for the first, 202 to 203 °C for the second.

Compared with `O=C(O)c1cccc(C=CC(=O)N2CCc3c([nH]c4ccccc34)C2c2ccc3c(c2)OCO3)c1` (stereo not given), `N#Cc1cc([N+](=O)[O-])ccc1N1CCC(OC(=O)c2ccccc2)CC1` is lower in melting point: 156 to 158 °C for the first, 143 to 145 °C for the second.

First: NS(=O)(=O)c1ccc(NN=Cc2ccc(Cl)cc2Cl)cc1
Second: CC(C)(C)C1=NN(c2ccc(S(=O)(=O)O)cc2)C(c2ccc(Cl)cc2)C1 (stereo not given)
The melting point of the first is higher: 219 to 221 °C for the first, 92.5 °C for the second.

First: O=C1NC(CO)(CO)CO1
Second: N#CCCNC(=O)c1n[nH]cc1NC(=O)c1ccoc1
The melting point of the first is lower: 107 to 108 °C for the first, 250 to 252 °C for the second.

First: NCC1=CC(c2ccccc2)Cc2c(O)cccc21 (stereo not given)
Second: COC1(O)C=C(O)C(C(O)C(=O)c2ccccc2)=CC1 (stereo not given)
The melting point of the first is lower: 102 to 104 °C for the first, 192 to 193 °C for the second.

`OC(Cn1ncc2c(Br)ncnc21)c1ccccc1` (stereo not given) and `Nc1ncnc2c1c(-c1ccc(Oc3ccccc3)cc1)cn2CC(=O)NCCOCCO` cannot be ordered by melting point: 146 to 147 °C for the first, 145 to 147 °C for the second.

First: Cn1cc(-c2cccc(N3CCc4c(sc5c4CCCC5)C3=O)c2CO)cc(Nc2ccc(C3CNC3)cn2)c1=O
Second: CN(Cc1cccc2c1CN(C1CCC(=O)NC1=O)C2=O)C(=O)c1ccc(Cl)c(Cl)c1 (stereo not given)
The melting point of the first is lower: 140 to 142 °C for the first, 228 to 230 °C for the second.

First: CCC(C)(C)c1cccc(NC=O)c1C
Second: CCOC(=O)C(c1ccc(N)cc1)N(C)C(C)C (stereo not given)
The melting point of the first is lower: 51 to 53 °C for the first, 70 to 71 °C for the second.

First: CN(Cc1ccc(Cl)c(Cl)c1)C(=O)C1=C(O)C(=O)N(CCC(=O)O)C1
Second: O=C(O)CCCNC(=O)c1ccccc1NC(=O)c1cc([N+](=O)[O-])ccc1O
The melting point of the first is lower: 183 to 184 °C for the first, 239 to 241 °C for the second.

First: CCC(CCOC)n1cc(Cl)nc(N2CCc3cc(Cl)cc(Cl)c32)c1=O (stereo not given)
Second: CSc1ccc(-c2c(C)nnc(Cl)c2-c2ncc(Cl)cc2Cl)nc1
The melting point of the first is lower: 95 to 97 °C for the first, 163 °C for the second.

First: COc1ccc(C2=NNC(=O)CC2c2ccc(OC)c(F)c2)cc1F (stereo not given)
Second: CS(=O)(=O)c1nccc(-c2ccc(Oc3ccc(F)cc3)cc2)n1
The melting point of the first is higher: 196 to 198 °C for the first, 146 to 147 °C for the second.

First: CNC(=O)c1c(I)c(C#N)c(I)c(C(=O)OCC(O)CO)c1I (stereo not given)
Second: CCOC(=O)c1ccc(C(=O)Sc2cccn3c(=O)c(C(=O)OCC)cnc23)cc1
The melting point of the first is lower: 117 to 120 °C for the first, 146 to 148 °C for the second.

Compared with `O=CNNc1ccc(NC(=S)Nc2ccccc2)cc1`, `CN(C)c1ccc(NC(=O)N(C)c2cccc(-c3ccc(CC(Nc4ccccc4C(=O)c4ccccc4)C(=O)O)cc3)c2)cc1` (stereo not given) is lower in melting point: 188 °C for the first, 130 °C for the second.

First: COC(=O)C(c1ccc(OCCNC(=O)C2Cc3ccccc3N2S(=O)(=O)c2ccc(-c3cccc(C(F)(F)F)c3)cc2)cc1)C(C)C (stereo not given)
Second: CC(C)c1ccc2c(c1)c(SCc1ccccc1)c(CC(C)(C)C(=O)O)n2Cc1ccc(Cl)cc1
The melting point of the first is lower: 68 to 76 °C for the first, 135 to 137 °C for the second.

Compared with `COc1cccc2c(Nc3ccccc3C)nc(N(C)C)nc12`, `CN(c1cccc2cc(-c3nccs3)[nH]c12)S(=O)(=O)c1ccsc1C(C)(C)O` is higher in melting point: 141 to 143 °C for the first, 153 °C for the second.

First: C#CCNC(=S)NC1CCC(=O)c2sccc21 (stereo not given)
Second: CC(=O)c1ccc2c(c1)[C@@H](O)[C@H](Br)C(C)(C)O2 (relative stereo)
The melting point of the first is higher: 130 to 136 °C for the first, 84 to 86 °C for the second.

First: CCCNc1nc(=O)n(C2CC(N=[N+]=[N-])C(CO)O2)cc1C (stereo not given)
Second: Cc1cc(-c2nncc3c(C(C)(C)C)c(O)nn23)no1
The melting point of the first is lower: 59 to 62 °C for the first, 275 to 278 °C for the second.

First: CC(C)C[C@H](C(=O)OCc1ccccc1)N1CC[C@]2(CCCN2C(=O)C(C)C)C1=O
Second: O=C(CCc1oc(-n2cnc3ccccc32)nc1-c1ccc(Cl)cc1)N1CCS(=O)(=O)C1
The melting point of the first is lower: 87 °C for the first, 136 to 137 °C for the second.

Compared with `CC(C)(C)N1C(=O)c2cc([N+](=O)[O-])c(Cl)nc2C1=O`, `Cc1cc(NS(C)(=O)=O)cc(C)c1S(=O)(=O)C[N+](=O)[O-]` is higher in melting point: 100 to 104 °C for the first, 138 to 140 °C for the second.

Compared with `CC1CC=NN1C(=O)c1cnccn1` (stereo not given), `COc1cc(OC)nc(SC2CCCC2CC(=O)O)n1` (stereo not given) is higher in melting point: 77 to 79 °C for the first, 125 to 127 °C for the second.

First: Cc1ccc(S(=O)(=O)OC2CCN(S(=O)(=O)c3ccc(C)cc3)CC2)cc1
Second: O=C(Nc1ccc(N2CCCC2)cc1)N(C[C@H]1CC[C@H](CN(C(=O)Nc2ccc(N3CCCC3)cc2)C2CCCCCC2)CC1)C1CCCCCC1
The melting point of the first is lower: 137 to 140 °C for the first, 152 to 155 °C for the second.

First: CCCCCCCCCCCCSc1nnn[nH]1
Second: C=CC1CCC2C3CC=C4CC(O)CCC4(C)C3CCC12C (stereo not given)
The melting point of the first is lower: 85 to 87 °C for the first, 132 to 135 °C for the second.

In the case of `NC(Cc1cc(O)c2c(c1)C(=O)c1cccc(O)c1C2=O)C(=O)O` (stereo not given), the melting point is reported as 210 to 212 °C.
